The text below walks through data of ChEMBL document CHEMBL1158288, “Antiinflammatory activity of coumarins from Santolina oblongifolia” (J Nat Prod, 1996).

A short description of test [1]: Antiinflammatory activity in NMRI mouse macrophages assessed as inhibition of A23187-induced LTC4 release at 25 uM by Ellman's method relative to control. In kind it is functional. The settings on record: Macrophage. In general terms: DTNB colorimetry detects thiols as they appear.
The nature of test [2]: Antiinflammatory activity in NMRI mouse macrophages assessed as inhibition of A23187-induced PGE2 release at 100 uM by Ellman's method relative to control. In kind it is functional. The settings on record: Macrophage.
Test [3] in a line: Antiinflammatory activity in NMRI mouse macrophages assessed as inhibition of A23187-induced PGE2 release by Ellman's method. In kind it is functional, cell-based. The settings on record: macrophage.
Test [4] can be described thus: Antiinflammatory activity in NMRI mouse macrophages assessed as inhibition of A23187-induced LTC4 release by Ellman's method. The format is functional, cell-based. The settings on record: macrophage.
The nature of test [5]: Antiinflammatory activity in NMRI mouse macrophages assessed as inhibition of A23187-induced LTC4 release at 100 uM by Ellman's method relative to control. The format is functional. Particulars: Macrophage.

The structures appear in SMILES notation.

A word on the inhibition: it is the drop in the measured response relative to a control, in per cent. Regarding `O=c1ccc2cc(O)c(O)cc2o1` [ESCULETIN], the inhibition at 25 µM in test [1] came to 71.2%. In addition, the inhibition at 100 µM in test [2] was determined as 71.7%. Moreover, the IC50 in test [3] came to 11 µmol; in test [4] it was 18 µmol.

Consider `COc1ccc2ccc(=O)oc2c1` [HERNIARIN], for which the inhibition at 25 µM in test [1] turned out to be 2.94%. Further, the inhibition at 100 µM in test [2] was found to be 65.7%. In test [3], the IC50 turned out to be 84 µmol.

On to `COc1ccc2c(c1)c(CC(=O)O)c(C)n2C(=O)c1ccc(Cl)cc1` [INDOMETHACIN], for which the inhibition at 100 µM in test [2] was found to be 78.1%. Besides, the IC50 in test [3] amounted to 22 µmol.

With `CC(Cc1ccc(O)c(O)c1)C(C)Cc1ccc(O)c(O)c1` (configuration not stated) [NORDIHYDROGUAIARETIC ACID], the inhibition at 100 µM in test [5] turned out to be 78.7%. Besides, the IC50 in test [4] came out at 6 µmol.

In the case of `COc1cc2ccc(=O)oc2cc1O` [SCOPOLETIN], the inhibition at 25 µM in test [1] was found to be 8.8%. For the same molecule, the inhibition at 100 µM in test [2] is 77.4%. Further, the IC50 in test [3] came to 5 µmol.

With `COc1cc2ccc(=O)oc2cc1O[C@@H]1O[C@H](CO)[C@@H](O)[C@H](O)[C@H]1O` [SCOPOLIN], the inhibition at 25 µM in test [1] came to 55%. Moreover, the inhibition at 100 µM in test [2] came to 75.7%. The IC50 in test [3] turned out to be 77 µmol.
